{
  "source": "the OligoGym collection",
  "note": "HELM strings list units from the 5' end as sugar, base in round brackets, then linkage (d deoxyribose, r ribose, m 2'-O-methyl, p phosphodiester). Strings are as the collection lists them; they lack the last nucleoside at the 3' end of the tested compound. [moe] = 2'-O-(2-methoxyethyl) (MOE); [sp] = phosphorothioate linkage; [m5C] = 5-methylcytosine",
  "data": [
    {"target": "UBE3A-ATS", "test": "mouse, dose not given", "details": "ASO", "units": {"3 h FOB score": "score 0-7"}, "values": [
      {"substance": "RNA1{[moe](A)[sp].[moe](G)p.[moe](G)p.[moe](T)p.[moe](G)p.d(T)[sp].d([m5C])[sp].d(T)[sp].d(T)[sp].d(A)[sp].d(T)[sp].d(A)[sp].d(T)[sp].d([m5C])[sp].d(T)[sp].[moe](A)p.[moe](T)p.[moe](G)[sp].[moe](A)}$$$$ (last 3' nucleoside missing)", "3 h FOB score": 0},
      {"substance": "RNA1{[moe](A)[sp].[moe](G)p.[moe](G)p.[moe](T)p.[moe]([m5C])p.[moe](A)p.d(A)[sp].d([m5C])[sp].d([m5C])[sp].d(A)[sp].d(A)[sp].d(T)[sp].d(T)[sp].d(T)[sp].d(G)[sp].d([m5C])[sp].[moe](T)p.[moe](A)[sp].[moe](T)}$$$$ (last 3' nucleoside missing)", "3 h FOB score": 5.3},
      {"substance": "RNA1{[moe](A)[sp].[moe](G)p.[moe](G)p.[moe](T)p.[moe]([m5C])p.d(A)[sp].d(A)[sp].d([m5C])[sp].d([m5C])[sp].d(A)[sp].d(A)[sp].d(T)[sp].d(T)[sp].d(T)[sp].d(G)[sp].[moe]([m5C])p.[moe](T)p.[moe](A)[sp].[moe](T)}$$$$ (last 3' nucleoside missing)", "3 h FOB score": 5.3},
      {"substance": "RNA1{[moe](A)[sp].[moe](G)p.[moe](G)p.[moe](T)p.d([m5C])[sp].d(A)[sp].d(A)[sp].d([m5C])[sp].d([m5C])[sp].d(A)[sp].d(A)[sp].d(T)[sp].d(T)[sp].d(T)[sp].[moe](G)p.[moe]([m5C])p.[moe](T)p.[moe](A)[sp].[moe](T)}$$$$ (last 3' nucleoside missing)", "3 h FOB score": 1},
      {"substance": "RNA1{[moe](A)[sp].[moe](G)p.[moe](G)p.[moe]([m5C])p.[moe](A)p.d(A)[sp].d(T)[sp].d(G)[sp].d(G)[sp].d(A)[sp].d([m5C])[sp].d(T)[sp].d(T)[sp].d(A)[sp].d(G)[sp].[moe](T)p.[moe](A)p.[moe]([m5C])[sp].[moe](A)}$$$$ (last 3' nucleoside missing)", "3 h FOB score": 4},
      {"substance": "RNA1{[moe](A)[sp].[moe](G)p.[moe](G)p.[moe]([m5C])p.[moe](A)p.d(T)[sp].d(T)[sp].d(T)[sp].d(G)[sp].d(G)[sp].d(A)[sp].d(G)[sp].d([m5C])[sp].d(A)[sp].d(T)[sp].[moe](T)p.[moe]([m5C])p.[moe](G)[sp].[moe](G)}$$$$ (last 3' nucleoside missing)", "3 h FOB score": 6.2},
      {"substance": "RNA1{[moe](A)[sp].[moe](G)p.[moe](T)p.[moe](A)p.[moe](T)p.d(A)[sp].d(G)[sp].d(A)[sp].d(T)[sp].d(G)[sp].d([m5C])[sp].d([m5C])[sp].d(T)[sp].d([m5C])[sp].d(T)[sp].[moe]([m5C])p.[moe]([m5C])p.[moe](T)[sp].[moe]([m5C])}$$$$ (last 3' nucleoside missing)", "3 h FOB score": 3.3},
      {"substance": "RNA1{[moe](A)[sp].[moe](G)p.[moe](T)p.[moe](G)p.[moe](G)p.d(T)[sp].d(T)[sp].d(G)[sp].d([m5C])[sp].d([m5C])[sp].d(T)[sp].d(T)[sp].d(A)[sp].d(G)[sp].d(T)[sp].[moe](A)p.[moe](T)p.[moe](T)[sp].[moe](A)}$$$$ (last 3' nucleoside missing)", "3 h FOB score": 6},
      {"substance": "RNA1{[moe](A)[sp].[moe](G)p.[moe](T)p.[moe](G)p.[moe](T)p.d([m5C])[sp].d(A)[sp].d(T)[sp].d(A)[sp].d(T)[sp].d(G)[sp].d(T)[sp].d(A)[sp].d(G)[sp].d([m5C])[sp].[moe](A)p.[moe](A)p.[moe](T)[sp].[moe](T)}$$$$ (last 3' nucleoside missing)", "3 h FOB score": 4},
      {"substance": "RNA1{[moe](A)[sp].[moe](G)p.[moe](T)p.[moe](G)p.[moe]([m5C])p.d([m5C])[sp].d(T)[sp].d(T)[sp].d(T)[sp].d([m5C])[sp].d(T)[sp].d(A)[sp].d(T)[sp].d(T)[sp].d(T)[sp].[moe]([m5C])p.[moe](A)p.[moe](G)[sp].[moe](A)}$$$$ (last 3' nucleoside missing)", "3 h FOB score": 0},
      {"substance": "RNA1{[moe](A)[sp].[moe](G)p.[moe](T)p.[moe](T)p.[moe](T)p.d(T)[sp].d([m5C])[sp].d(G)[sp].d([m5C])[sp].d([m5C])[sp].d([m5C])[sp].d(G)[sp].d(T)[sp].d(T)[sp].d(A)[sp].[moe]([m5C])p.[moe]([m5C])p.[moe](T)[sp].[moe]([m5C])}$$$$ (last 3' nucleoside missing)", "3 h FOB score": 4},
      {"substance": "RNA1{[moe](A)[sp].[moe](G)p.[moe](T)p.[moe]([m5C])p.[moe](T)p.d(T)[sp].d([m5C])[sp].d(A)[sp].d(T)[sp].d(T)[sp].d(A)[sp].d(T)[sp].d(T)[sp].d([m5C])[sp].d(T)[sp].[moe]([m5C])p.[moe](T)p.[moe](A)[sp].[moe](G)}$$$$ (last 3' nucleoside missing)", "3 h FOB score": 1},
      {"substance": "RNA1{[moe](A)[sp].[moe](G)p.[moe]([m5C])p.[moe](T)p.[moe](A)p.d(T)[sp].d([m5C])[sp].d(T)[sp].d(G)[sp].d(T)[sp].d(A)[sp].d([m5C])[sp].d(A)[sp].d(A)[sp].d(A)[sp].[moe](A)p.[moe](T)p.[moe](G)[sp].[moe](G)}$$$$ (last 3' nucleoside missing)", "3 h FOB score": 4},
      {"substance": "RNA1{[moe](A)[sp].[moe](G)p.[moe]([m5C])p.[moe](T)p.[moe](T)p.d(T)[sp].d(A)[sp].d(G)[sp].d(T)[sp].d(A)[sp].d(T)[sp].d(G)[sp].d(T)[sp].d([m5C])[sp].d(G)[sp].[moe](A)p.[moe](G)p.[moe](A)[sp].[moe](A)}$$$$ (last 3' nucleoside missing)", "3 h FOB score": 4.2},
      {"substance": "RNA1{[moe](A)[sp].[moe](G)p.[moe]([m5C])p.[moe](T)p.[moe]([m5C])p.d(A)[sp].d([m5C])[sp].d(T)[sp].d(G)[sp].d(A)[sp].d(A)[sp].d(A)[sp].d(G)[sp].d(A)[sp].d([m5C])[sp].[moe](A)p.[moe]([m5C])p.[moe](A)[sp].[moe](A)}$$$$ (last 3' nucleoside missing)", "3 h FOB score": 5},
      {"substance": "RNA1{[moe](A)[sp].[moe](G)p.[moe]([m5C])p.[moe]([m5C])[sp].d(A)[sp].d(G)[sp].d(G)[sp].d(T)[sp].d(G)[sp].d(T)[sp].d([m5C])[sp].d(T)[sp].[moe](T)p.[moe](A)p.[moe](T)p.[moe](A)[sp].[moe](T)}$$$$ (last 3' nucleoside missing)", "3 h FOB score": 6},
      {"substance": "RNA1{[moe](A)[sp].[moe](G)p.[moe]([m5C])p.[moe]([m5C])p.[moe](A)[sp].d(G)[sp].d(G)[sp].d(T)[sp].d(G)[sp].d(T)[sp].d([m5C])[sp].d(T)[sp].d(T)[sp].[moe](A)p.[moe](T)p.[moe](A)[sp].[moe](T)}$$$$ (last 3' nucleoside missing)", "3 h FOB score": 6},
      {"substance": "RNA1{[moe](A)[sp].[moe](G)p.[moe]([m5C])p.[moe]([m5C])p.[moe](A)p.[moe](G)[sp].d(G)[sp].d(T)[sp].d(G)[sp].d(T)[sp].d([m5C])[sp].d(T)[sp].d(T)[sp].d(A)[sp].[moe](T)p.[moe](A)[sp].[moe](T)}$$$$ (last 3' nucleoside missing)", "3 h FOB score": 0},
      {"substance": "RNA1{[moe](A)[sp].[moe](G)p.[moe]([m5C])p.[moe]([m5C])p.[moe](A)p.[moe](G)p.d(G)[sp].d(T)[sp].d(G)[sp].d(T)[sp].d([m5C])[sp].d(T)[sp].d(T)[sp].d(A)[sp].d(T)[sp].d(A)[sp].[moe](T)p.[moe]([m5C])[sp].[moe](T)}$$$$ (last 3' nucleoside missing)", "3 h FOB score": 0},
      {"substance": "RNA1{[moe](A)[sp].[moe](G)p.[moe]([m5C])p.[moe]([m5C])p.[moe](A)p.d(G)[sp].d(G)[sp].d(T)[sp].d(G)[sp].d(T)[sp].d([m5C])[sp].d(T)[sp].d(T)[sp].d(A)[sp].d(T)[sp].[moe](A)p.[moe](T)p.[moe]([m5C])[sp].[moe](T)}$$$$ (last 3' nucleoside missing)", "3 h FOB score": 2.3},
      {"substance": "RNA1{[moe](A)[sp].[moe](G)p.[moe]([m5C])p.[moe]([m5C])p.d(A)[sp].d(G)[sp].d(G)[sp].d(T)[sp].d(G)[sp].d(T)[sp].d([m5C])[sp].d(T)[sp].d(T)[sp].d(A)[sp].[moe](T)p.[moe](A)p.[moe](T)p.[moe]([m5C])[sp].[moe](T)}$$$$ (last 3' nucleoside missing)", "3 h FOB score": 4},
      {"substance": "RNA1{[moe](A)[sp].[moe](T)[sp].[moe]([m5C])[sp].[moe](A)[sp].[moe](T)[sp].d(G)[sp].d(T)[sp].d(G)[sp].d([m5C])[sp].d(A)[sp].d(T)[sp].d(A)[sp].d([m5C])[sp].d([m5C])[sp].d([m5C])[sp].[moe](A)[sp].[moe](G)[sp].[moe](G)[sp].[moe](G)}$$$$ (last 3' nucleoside missing)", "3 h FOB score": 5.2},
      {"substance": "RNA1{[moe](A)[sp].[moe](T)p.[moe](A)p.[moe](G)p.[moe]([m5C])p.d([m5C])[sp].d([m5C])[sp].d(T)[sp].d(T)[sp].d(T)[sp].d([m5C])[sp].d(A)[sp].d(G)[sp].d([m5C])[sp].d(A)[sp].[moe]([m5C])p.[moe](A)p.[moe]([m5C])[sp].[moe](T)}$$$$ (last 3' nucleoside missing)", "3 h FOB score": 3.5},
      {"substance": "RNA1{[moe](A)[sp].[moe](T)p.[moe](G)p.[moe](A)p.[moe](T)p.d([m5C])[sp].d(A)[sp].d(T)[sp].d(A)[sp].d([m5C])[sp].d(T)[sp].d(G)[sp].d(G)[sp].d(A)[sp].d(G)[sp].[moe]([m5C])p.[moe]([m5C])p.[moe](A)[sp].[moe](G)}$$$$ (last 3' nucleoside missing)", "3 h FOB score": 5.8},
      {"substance": "RNA1{[moe](A)[sp].[moe](T)p.[moe](G)p.[moe](A)p.[moe]([m5C])p.d(A)[sp].d(T)[sp].d(A)[sp].d(A)[sp].d([m5C])[sp].d([m5C])[sp].d(A)[sp].d(T)[sp].d(A)[sp].d(T)[sp].[moe](A)p.[moe]([m5C])p.[moe](A)[sp].[moe](A)}$$$$ (last 3' nucleoside missing)", "3 h FOB score": 0},
      {"substance": "RNA1{[moe](A)[sp].[moe](T)p.[moe](G)p.[moe](G)p.[moe](G)p.d(A)[sp].d(G)[sp].d([m5C])[sp].d(T)[sp].d([m5C])[sp].d(T)[sp].d(G)[sp].d(G)[sp].d(A)[sp].d(A)[sp].[moe](A)p.[moe](A)p.[moe]([m5C])[sp].[moe](A)}$$$$ (last 3' nucleoside missing)", "3 h FOB score": 4}
    ]}
  ]
}
